According to patent US12589158B2 (priority 2022, dated 2026):

How the values were obtained:
[1] = Pharmacokinetics in cynomolgus monkeys; settings: cynomolgus monkey, in vivo, sc, 25 nmol/kg
Protocol: After subcutaneous or intravenous administration to cynomolgus monkeys, plasma is collected and the drug concentration in plasma is determined to illustrate the in vivo pharmacokinetic properties of the compound according to the present invention. The compound is dissolved in 1.4% PG in 8 mM Na2HPO4 Buffer (pH 7.39), and filtered through a filter membrane (PTFE, 0.45 μm) to obtain 25 and 12.5 nmol/mL solution of the compound respectively. The obtained solutions are administered to cynomolgus monkeys (4-8 kg) at a dose of 25 nmol/kg subcutaneously (s.c.) or 12.5 nmol/kg intravenously (i.v.). […] The blood samples are centrifuged at 2200 g for 10 minutes to obtain a plasma, which is stored at −90° C. to −60° C. for further analysis and assay.
70.0 μL of thawed plasma sample is taken. 70 μL of acetonitrile (containing 1 ng/ml of the internal standard) is added to precipitate protein. The mixture is vortexed for 1 minute, and centrifuged at 14000 rpm for 10 minutes. 60.0 μL of the supernatant is taken, into which 60.0 μL of 0.5% aqueous formic acid solution is added. The mixture is vortexed for 5 minutes. 10 μL of the mixture solution is sampled and injected into the LC-MS/MS to determine the drug concentration in plasma.
Based on the drug concentration in plasma of the compounds in the cynomolgus monkeys, the pharmacokinetic parameters are calculated by applying the software Winnolin 8.2 in a non-compartmental model, and the results are shown in Table 9 and Table 10 below.

[2] = Pharmacokinetics in C57 mice; settings: mouse, in vivo
Protocol: After subcutaneous or intravenous administration to C57 mice, plasma is collected and the drug concentration in plasma is determined to illustrate the in vivo pharmacokinetic properties of the compound according to the present invention. […] 20.0 μL of thawed plasma sample is taken. 20 μL of 50% aqueous methanol solution (containing 100 ng mL^−1 internal standard) and 60 μL of acetonitrile are added sequentially to precipitate protein. The mixture is vortexed for 5 minutes, and centrifuged at 3700 rpm for 8 minutes. 50.0 μL of the supernatant is taken, into which 50.0 μL of 0.5% aqueous formic acid solution is added. The mixture is vortexed for 5 minutes. 50 μL of the mixture solution is sampled and injected into the LC-MS/MS to determine the drug concentration in plasma.

[3] = Pharmacokinetics following single administration in SD rat; parameters: species or system SD rats; settings: in vivo, sc, 50 nmol/kg
Protocol: The compound is administrated to male SD rats (230-268 g, n=3) at a dose of 50.0 nmol/kg (s.c.) or 25.0 nmol/kg (i.v.). […] 30.0 μL of thawed plasma sample is taken. 150 μL of acetonitrile solution (containing 5 ng mL^−1 Verapamil, 50 ng·mL^−1 Glibenclamide, 200 ng·mL^−1 Tolbutamide and 200 ng·mL^−1 Diclofenac) are added to precipitate protein. The mixture is vortexed for 5 minutes, and centrifuged at 3700 rpm for 8 minutes. 70.0 μL of the supernatant is taken, into which 70.0 μL of 0.5% aqueous formic acid solution is added. The mixture is vortexed for 5 minutes. 15 μL of the mixture solution is sampled and injected into the LC-MS/MS to determine the drug concentration in plasma. 20.0 μL of thawed plasma sample is taken. 60 μL of acetonitrile solution (containing 5 ng mL^−1 Verapamil, 50 ng·mL^−1 Glibenclamide, 200 ng·mL^−1 Tolbutamide and 200 ng·mL^−1 Diclofenac) are added to precipitate protein. […] The mixture is vortexed for 10 minutes. 10.0 μL of the mixture solution is sampled and injected into the LC-MS/MS to determine the drug concentration in plasma. 30.0 μL of thawed plasma sample is taken. 150 μL of acetonitrile solution (containing 5 ng mL^−1 Verapamil, 50 ng mL^−1 Glibenclamide, 200 ng·mL^−1 Tolbutamide and 200 ng·mL^−1 Diclofenac) are added to precipitate protein. The mixture is vortexed for 5 minutes, and centrifuged at 3700 rpm for 8 minutes. 70.0 μL of the supernatant is taken, into which 70.0 μL of 0.5% aqueous formic acid solution is added. The mixture is vortexed for 5 minutes. 10.0 μL of the mixture solution is sampled and injected into the LC-MS/MS to determine the drug concentration in plasma.

## CC[C@H](C)[C@H](NC(=O)C(C)(C)NC(=O)[C@H](Cc1ccc(O)cc1)NC(=O)[C@H](CC(=O)O)NC(=O)[C@H](CO)NC(=O)[C@@H](NC(=O)C(C)(Cc1ccccc1)NC(=O)[C@@H](NC(=O)CNC(=O)[C@H](CCC(=O)O)NC(=O)C(C)(C)NC(=O)[C@@H](N)Cc1ccc(O)cc1)[C@@H](C)O)[C@@H](C)O)C(=O)NC(C)(C)C(=O)N[C@@H](CC(C)C)C(=O)N[C@@H](CC(=O)O)C(=O)N[C@@H](CCCCN)C(=O)N[C@@H](CCC(N)=O)C(=O)N[C@@H](C)C(=O)N[C@@H](CCC(N)=O)C(=O)N[C@@H](C)C(=O)N[C@@H](CCC(=O)O)C(=O)N[C@@H](Cc1ccccc1)C(=O)N[C@H](C(=O)N[C@@H](CCCCN)C(=O)N[C@@H](Cc1c[nH]c2ccccc12)C(=O)N[C@@H](CC(C)C)C(=O)N[C@@H](CC(C)C)C(=O)N[C@@H](CCCCNC(=O)COCCOCCNC(=O)COCCOCCNC(=O)COCCOCCNC(=O)CC[C@H](NC(=O)CCCCCCCCCCCCCCCCCCCCC(=O)O)C(=O)O)C(=O)NCC(=O)NCC(=O)N1CCC[C@H]1C(=O)N[C@@H](CO)C(=O)N[C@@H](CO)C(=O)NCC(=O)N[C@@H](C)C(=O)N1CCC[C@H]1C(=O)N1CCC[C@H]1C(=O)N1CCC[C@H]1C(=O)N[C@@H](CO)C(=O)N[C@@H](CCCCN)C(N)=O)C(C)C (some centres unmarked) [P020]
[1]
  MRT inf: 103 ± 13.1 h
  MRT last: 97.5 ± 9.67 h
[2]; iv
  MRT inf: 21.8 h
  MRT last: 16.8 h
[2]; sc
  MRT inf: 29.4 h
  MRT last: 21.8 h
[3]
  MRT inf: 37.1 ± 0.636 h
  MRT last: 29.5 ± 4.68 h
